Laboratory results published in ChEMBL document CHEMBL3232765, “Anti-mycobacterial activity of 1,3-diaryltriazenes” (Eur J Med Chem, 2014).
Calls of active or inactive are those of the source. No cut-off for these calls is given here.

Tested on: Mycobacterium tuberculosis
Experiment: Antimycobacterial activity against multidrug-resistant Mycobacterium tuberculosis LAM-1 at 0.73 uM after 4 to 6 days by BACTEC MGIT 960 assay
Format: functional, organism-based

NNC(=O)c1ccncc1 [ISONIAZID]
Activity: inactive
